# According to publication PMC4928982 (Science Advances, 2016):
# Residues, ends and D or L forms follow the SMILES beside them.
# Tests used:
# [1] = test system: human first-trimester placental explants (CTB)
# [2] = test system: mouse placenta (maternofetal interface); assay type: in vivo, BALB/c mice; conditions: 200 μg, tail vein, cardiac perfusion
# [3] = test system: human placental explants (syncytiotrophoblast); experiment: Peptide-binding assay with human placental explants; assay type: cell-based; conditions: peptide 20 μM, 0 to 3 hours
molecule,measurement,setting,value
Cys-Arg-Gly-Asp-Lys-Gly-Pro-Asp-Cys (disulfide) [iRGD],basal rates of CTB proliferation (Ki67),[1],did not alter
same,rate of CTB apoptosis (M30),[1],modestly reduced
N=C(N)NCCC[C@H](NC(=O)[C@H](CCCCN)NC(=O)CNC(=O)[C@H](CS)NC(=O)c1ccc2c(c1)C(=O)OC21c2ccc(O)cc2Oc2cc(O)ccc21)C(=O)N[C@@H](CCCCN)C(=O)O [FAM-CGKRK] (HELM PEPTIDE1{[O=C1OC2(c3ccc(O)cc3Oc3cc(O)ccc32)c2ccc(C(=O)[*:2])cc21].C.G.K.R.K}$$$$V2.0),accumulation in maternal organs,"[2]; pregnant mice, 3 hours, confocal microscopy (fig. S1)",do not accumulate in maternal organs of pregnant mice
FAM-ARALPSQRSR [reference compound],binding at the murine maternofetal interface,"[2]; pregnant mice E11.5 to E17.5, 3 hours, fluorescence microscopy, n = 3 placentas from n = 4 mice",did not target the maternofetal interface
same,binding to human placenta (first-trimester and term explants),[3],did not bind to the syncytium of human placenta or to other cellular components
Cys-Gly-Lys-Arg-Lys [CGKRK],basal rates of CTB proliferation (Ki67),[1],did not alter
